# Measurements reported in paper PMC8162438, “Cancer cell-selective modulation of mitochondrial respiration and metabolism by potent organogold(III) dithiocarbamates” (Chemical Science, 2020).
# System: MDA-MB-231
# Experiment: Whole-cell gold uptake by ICP-OES
# Format: cell-based
# Details: MDA-MB-231, 5 μM, 24 h
# Protocol: We next performed cellular uptake studies to determine what percentage of the compounds were getting into the cell after treatment. Given that most therapeutic targets are localized receptors on the plasma membrane, quantifying the amount of gold compounds in cellular fractions and investigating their mode of uptake is crucial. For whole-cell uptake studies, MDA-MB-231 were treated with all 10 compounds and Auranofin at 5 μM for 24 h (Fig. 5A). Auranofin is the only gold-based therapeutic to be clinically approved, therefor we used this drug as a benchmark for comparison.[67] After treatment, the cells were washed with PBS, centrifuged, and digested with 0.5 mL of conc. […] Given that these complexes readily react with nucleophilic biological molecules and the lack of accumulation in the nuclear fraction, it is evident that the mechanism of action of this class of compounds is differentiated from the clinically available platinum agents. […]
# positive control. When ready for analysis, the media were removed and the wells washed with 5 mL of PBS. […] The cells were resuspended in 2 mL of fresh media, counted, and reconstituted to a concentration of 1 x 10^5 cells/mL. […]
# Compound 2a was prepared as a stock in DMSO and added to the respective wells at the specified concentrations of 0.1, 1, and 10 µM and treated for 12 h. […] The samples were cooled and stored at −20 °C until ready for use. […]
row,Compound,Intracellular uptake [pmol per million cells]
1,C[N+](C)=C1[S][Au-2]2([S]1)[c]1ccccc1C(=O)c1cccc[n+]12.F[P-](F)(F)(F)(F)F (centres unmarked) [1a],3017
2,C[N+](C)=C1[S][Au-2]2([S]1)[c]1ccccc1Cc1cccc[n+]12.F[P-](F)(F)(F)(F)F (centres unmarked) [2a],3267
